Test results as given in patent US20170097358A1, “EARLY DETECTION OF PREECLAMPSIA” (Igenomix S.L., priority 2014, published 2017).

Tests used:
Format in all cases: cell-based, human
[1] = test system: plasmin; assay: Plasmin activity in hESC conditioned media, fluorimetric assay; conditions: heparin 100 ug/mL
Method: Plasmin activity was measured in conditioned media by fluorimetric assay kit (Anaspec, CA, USA). It is based in a protease cleavage to plasmin substrate that generates a rhodamine 110 fluorophore which has a bright green fluorescence detected at 496 nm/520 nm (excitation/emission). Fifty microlitres of conditioned media was pre-incubated 10 min at room temperature and 50 uL of plasmin substrate solution was added into each well. Fluorescence signal was obtain for kinetic reading immediately start measuring and record data every 5 min for 60 min, with a total of 13 lectures. Each condition was evaluated in duplicate. The fluorescence was Interpol to concentration values using an Rh110 fluorescence reference standard.
(§1) hESCs were cultured on monolayer in presence of 50 μg/mL and 100 μg/mL of heparin (Sigma, Madrid, during 15, 30 and 60 min to elaborate a dose-response experiment. Conditioned media from hESC cells were collected to analyze plasminogen levels, plasmin activity and metalloproteases production.

[2] = test system: MMP2; assay: MMP2 level in hESC conditioned media by ELISA; conditions: heparin treatment, all hESC conditions
Method: (§2) MMP2 and MMP9 pro and active protein forms were evaluated by commercial ELISA analysis (RayBiotech, GA, USA). These assays employ an antibody specific for humans MMP-2 and MMP-9 coated on a 96-well plate. Standards and samples are pipette by duplicated into the wells and MMP-2 and MMP-9 present in a sample is bound to the wells by the immobilized antibody. Biotinylated anti-human MMP-2 and MMP-9 and HRP-conjugated streptavidin were added. TMB substrate solutions were added and absorbance at 450 nm was extrapolated to standard curve.
as §1

[3] = test system: plasminogen; assay: Plasminogen level in hESC conditioned media by ELISA; conditions: heparin 100 ug/mL; control siRNA, ANXA2 siRNA, non-PE and sPE decidualized hESCs (all conditions)
Method: Plasminogen level was evaluated in conditioned media by ELISA kit (Cell Biolabs, CA, USA) following manufacturer's instructions. Average absorbance (Δ450 nm) in duplicate wells was calculated by subtracting the background from wells with media without hESC.
as §1

[4] = test system: ANXA2; assay: Secreted extracellular ANXA2 in hESC conditioned media by ELISA; conditions: heparin treatment; control, ANXA2 siRNA and sPE hESCs
Method: Protein extracts (2 μg/well) and conditioned media were analyzed by ELISA (R&D Systems, MN, USA). Inmobilized capture antibody specifically binds Annexin A2. After washing away un-bounded material, a biotinylated detection antibody specific for Annexin A2 is used to detect the bound Annexin A2, using a standard Streptavidin-HRP format. Three replicates were performed for each condition and the absorbance values were extrapolated to standard curve to establish human Annexin A2 concentration (pg/mL).
as §1

[5] = test system: MMP9; assay: MMP9 level in hESC conditioned media by ELISA; conditions: heparin treatment, all hESC conditions
Method: as §2, §1

heparin
Plasmin activity ([1]; ANXA2 siRNA hESCs and hESCs from sPE): significant increase
Plasmin activity in conditioned media ([1]; control siRNA, ANXA2 siRNA, non-PE and sPE decidualized hESCs (all conditions)): significantly increased
MMP2 production [2]: significant increase
Plasminogen secretion into the conditioned media [3]: significantly increased
ANXA2 protein secreted to the culture media [4]: significant increase
MMP9 production [5]: significant increase
